Assay results: the NIST ThermoML archive (doi:10.1016/j.jct.2015.05.001)
Where “and” joins values, the source holds several entries; their conditions need not be identical. Equal values may be shown once.

How the values were obtained:
[1] = Molar enthalpy of transition or fusion; settings: Crystal; DSC
[2] = for Triple point temperature: DTA

Brc1ccc2c(c1)Cc1cc(Br)ccc1-2 [2,7-dibromofluorene]
Settings	Molar enthalpy of transition or fusion [kcal/mol]
[1]	5.43

[2], Crystal
Settings	vapor or sublimation pressure
361.15 K, Calculated from knudsen effusion weight loss	9.5e-05 kPa and 9.7e-05 kPa and 9.6e-05 kPa
363.14 K, Calculated from knudsen effusion weight loss	0.000119 kPa and 0.000118 kPa
365.11 K, Calculated from knudsen effusion weight loss	0.000147 kPa and 0.000148 kPa and 0.000144 kPa
367.16 K, Calculated from knudsen effusion weight loss	0.000177 kPa and 0.000179 kPa
369.11 K, Calculated from knudsen effusion weight loss	0.000218 kPa and 0.000214 kPa and 0.000215 kPa
371.1 K, Calculated from knudsen effusion weight loss	0.000267 kPa and 0.000261 kPa
373.15 K, Calculated from knudsen effusion weight loss	0.000318 kPa and 0.000315 kPa and 0.000319 kPa
375.12 K, Calculated from knudsen effusion weight loss	0.000392 kPa and 0.000388 kPa and 0.000382 kPa
377.12 K, Calculated from knudsen effusion weight loss	0.000472 kPa and 0.000478 kPa and 0.000463 kPa
379.15 K, Calculated from knudsen effusion weight loss	0.000556 kPa and 0.00056 kPa and 0.000563 kPa
381.12 K, Calculated from knudsen effusion weight loss	0.000678 kPa and 0.000687 kPa and 0.000674 kPa
382.23 K, Closed cell (Static) method	0.000732 kPa
383.12 K, Calculated from knudsen effusion weight loss	0.000809 kPa and 0.000827 kPa and 0.000832 kPa
384.26 K, Closed cell (Static) method	0.000874 kPa
386.08 K, Closed cell (Static) method	0.001029 kPa
388.21 K, Closed cell (Static) method	0.001254 kPa
390.11 K, Closed cell (Static) method	0.001472 kPa
392.14 K, Closed cell (Static) method	0.001751 kPa
394.16 K, Closed cell (Static) method	0.002104 kPa
396.08 K, Closed cell (Static) method	0.002489 kPa
398.07 K, Closed cell (Static) method	0.002922 kPa

Settings	Triple point temperature [K]
[2], Crystal	438.79

Brc1ccc2c(c1)Cc1ccccc1-2 [2-bromofluorene]
Settings	Molar enthalpy of transition or fusion [kcal/mol]
[1]	4.07

[2]
Settings	vapor or sublimation pressure
327.17 K, Crystal, Calculated from knudsen effusion weight loss	0.000118 kPa and 0.000119 kPa
329.13 K, Crystal, Calculated from knudsen effusion weight loss	0.00015 kPa and 0.000148 kPa
331.09 K, Crystal, Calculated from knudsen effusion weight loss	0.000186 kPa and 0.000183 kPa
333.16 K, Crystal, Calculated from knudsen effusion weight loss	0.000223 kPa and 0.000225 kPa and 0.000229 kPa
335.14 K, Crystal, Calculated from knudsen effusion weight loss	0.00028 kPa and 0.000275 kPa and 0.000279 kPa
337.11 K, Crystal, Calculated from knudsen effusion weight loss	0.000347 kPa and 0.000346 kPa and 0.000343 kPa
339.16 K, Crystal, Calculated from knudsen effusion weight loss	0.000417 kPa and 0.000416 kPa and 0.000425 kPa
341.14 K, Crystal, Calculated from knudsen effusion weight loss	0.000515 kPa and 0.000501 kPa
343.1 K, Crystal, Calculated from knudsen effusion weight loss	0.000627 kPa and 0.000626 kPa and 0.000634 kPa
345.16 K, Crystal, Calculated from knudsen effusion weight loss	0.000749 kPa and 0.000747 kPa and 0.000758 kPa
347.09 K, Crystal, Calculated from knudsen effusion weight loss	0.000928 kPa and 0.000929 kPa and 0.000909 kPa
349.09 K, Crystal, Calculated from knudsen effusion weight loss	0.00112 kPa and 0.001125 kPa and 0.001127 kPa
350.8 K, Crystal, Closed cell (Static) method	0.001323 kPa
352.79 K, Crystal, Closed cell (Static) method	0.001593 kPa
354.74 K, Crystal, Closed cell (Static) method	0.001921 kPa
356.73 K, Crystal, Closed cell (Static) method	0.002274 kPa
358.7 K, Crystal, Closed cell (Static) method	0.002726 kPa
360.67 K, Crystal, Closed cell (Static) method	0.003206 kPa
362.65 K, Crystal, Closed cell (Static) method	0.003848 kPa
364.63 K, Crystal, Closed cell (Static) method	0.00452 kPa
366.6 K, Crystal, Closed cell (Static) method	0.005367 kPa
368.56 K, Crystal, Closed cell (Static) method	0.006271 kPa
370.56 K, Crystal, Closed cell (Static) method	0.007492 kPa
372.53 K, Crystal, Closed cell (Static) method	0.008716 kPa
374.47 K, Metastable liquid, Closed cell (Static) method	0.012 kPa
374.5 K, Crystal, Closed cell (Static) method	0.0103 kPa
376.47 K, Crystal, Closed cell (Static) method	0.01202 kPa
376.47 K, Metastable liquid, Closed cell (Static) method	0.01362 kPa
378.44 K, Crystal, Closed cell (Static) method	0.01403 kPa
378.44 K, Metastable liquid, Closed cell (Static) method	0.01541 kPa
380.4 K, Crystal, Closed cell (Static) method	0.01634 kPa
380.4 K, Metastable liquid, Closed cell (Static) method	0.01749 kPa
382.39 K, Metastable liquid, Closed cell (Static) method	0.01992 kPa
384.36 K, Metastable liquid, Closed cell (Static) method	0.02244 kPa
386.34 K, Metastable liquid, Closed cell (Static) method	0.02529 kPa
388.31 K, Metastable liquid, Closed cell (Static) method	0.02854 kPa
390.28 K, Closed cell (Static) method, Liquid	0.03201 kPa
392.25 K, Closed cell (Static) method, Liquid	0.03602 kPa
394.21 K, Closed cell (Static) method, Liquid	0.04022 kPa
396.18 K, Closed cell (Static) method, Liquid	0.04506 kPa
398.13 K, Closed cell (Static) method, Liquid	0.05046 kPa
400.11 K, Closed cell (Static) method, Liquid	0.05625 kPa
402.06 K, Closed cell (Static) method, Liquid	0.0628 kPa
404.05 K, Closed cell (Static) method, Liquid	0.06988 kPa
405.99 K, Closed cell (Static) method, Liquid	0.0774 kPa
407.97 K, Closed cell (Static) method, Liquid	0.08499 kPa
409.95 K, Closed cell (Static) method, Liquid	0.0938 kPa
411.9 K, Closed cell (Static) method, Liquid	0.1045 kPa
413.88 K, Closed cell (Static) method, Liquid	0.1164 kPa
415.84 K, Closed cell (Static) method, Liquid	0.1264 kPa
417.81 K, Closed cell (Static) method, Liquid	0.1398 kPa
419.77 K, Closed cell (Static) method, Liquid	0.1534 kPa

Settings	Triple point temperature [K]
[2], Crystal	387.39
